Our source for the IC50, EC50 and CC50 values is article PMC8696196 (RSC Advances, 2021).

Read-outs that look alike come from different tables or passages of the source. Bounds are passed on as bounds.

In general, IC50 refers to the concentration at which inhibition is half-maximal. A word on the EC50: it is the concentration giving half of the maximal effect.

One series addresses N5 (H12N5) neuraminidase (Influenza A virus, UniProt A1ILL9). As to the kind of experiment: biochemical.
The subject of series [1] is H1N1 (A/Puerto Rico/8/34). As to the kind of experiment: microbe, parasite or virus in culture. In kind it is cell-based, influenza A virus. The settings on record: read-out: EC50 H1N1.
The next series relates to H3N2 (A/Moscow/10/99). Kind of series: microbe, parasite or virus in culture. The series is classed as cell-based, influenza A virus. The settings on record: read-out: EC50 H3N2.
A short description of another series: in vitro. The settings on record: dog.
A further series deals with N2 (H3N2) neuraminidase (Influenza A virus, UniProt Q8AZ87). As to the kind of experiment: biochemical.

`CCC(CC)O[C@@H]1C=C(C(=O)O)C[C@H](n2cc(-c3ccccc3N)nn2)[C@H]1NC(C)=O` [Compound 1k, (3R,4R,5S)-4-Acetamido-5-[4-(2-aminophenyl)-1H-1,2,3-triazol-1-yl]-3-(pentan-3-yloxy)cyclohex-1-ene-1-carboxylic acid] displayed an IC50 against N5 (H12N5) neuraminidase of 0.52 ± 0.13 µM.

With `CCC(CC)O[C@@H]1C=C(C(=O)O)C[C@H](n2nncc2COc2ccc(C[C@H](N)C(=O)O)cc2)[C@H]1NC(C)=O` [Compound 2n, (3R,4R,5S)-4-Acetamido-5-{5-{[4-((S)-2-amino-2-carboxyethyl)phenoxy]methyl}-1H-1,2,3-triazol-1-yl}-3-(pentan-3-yloxy)cyclohex-1-ene-1-carboxylic acid], on N5 (H12N5) neuraminidase, the half-inhibitory concentration (IC50) was 2.43 ± 0.33 µM.

`CCC(CC)O[C@@H]1C=C(C(=O)O)C[C@H](n2cc(-c3ccc(N)cc3)nn2)[C@H]1NC(C)=O` [Compound 1i, (3R,4R,5S)-4-Acetamido-5-[4-(4-aminophenyl)-1H-1,2,3-triazol-1-yl]-3-(pentan-3-yloxy)cyclohex-1-ene-1-carboxylic acid]: on N5 (H12N5) neuraminidase, the half-maximal inhibitory concentration (IC50) is more than 100 µM.

At N5 (H12N5) neuraminidase, `CCC(CC)O[C@@H]1C=C(C(=O)O)C[C@H](n2cc(-c3ccc(N(CC)CC)cc3)nn2)[C@H]1NC(C)=O` [Compound 1m, (3R,4R,5S)-4-Acetamido-5-[4-(4-diethylaminophenyl)-1H-1,2,3-triazol-1-yl]-3-(pentan-3-yloxy)cyclohex-1-ene-1-carboxylic acid] displayed a 50% inhibitory concentration (IC50) of more than 100 µM.

As to `CCC(CC)O[C@@H]1C=C(C(=O)O)C[C@H](n2nncc2-c2cccc(N)c2)[C@H]1NC(C)=O` [Compound 2j, (3R,4R,5S)-4-Acetamido-5-[5-(3-aminophenyl)-1H-1,2,3-triazol-1-yl]-3-(pentan-3-yloxy)cyclohex-1-ene-1-carboxylic acid], the IC50 on N5 (H12N5) neuraminidase turned out to be 0.045 ± 0.016 µM. Further, the EC50 in series [1] (Influenza A virus, H1N1, MDCK, 72 h) turned out to be 11.5 ± 2.69 µM; in the series on H3N2 (A/Moscow/10/99) (Influenza A virus, H3N2, MDCK, 72 h), 7.65 ± 0.7 µM. The same compound yielded a CC50 in the series “in vitro” of more than 500 µM.

Consider `CCC(CC)O[C@@H]1C=C(C(=O)O)C[C@H](n2cc(-c3ccccc3C(=O)O)nn2)[C@H]1NC(C)=O` [Compound 1h, (3R,4R,5S)-4-Acetamido-5-[4-(2-carboxyphenyl)-1H-1,2,3-triazol-1-yl]-3-(pentan-3-yloxy)cyclohex-1-ene-1-carboxylic acid], for which, on N5 (H12N5) neuraminidase, the IC50 was found to be 61.2 ± 23.7 µM.

Compound `CCC(CC)O[C@@H]1C=C(C(=O)O)C[C@H](N)[C@H]1NC(C)=O` [OSC, oseltamivir carboxylate, reference compound] had an IC50 at N5 (H12N5) neuraminidase of 0.00094 ± 0.0003 µM. The EC50 in series [1] turned out to be 0.25 ± 0.081 µM; with H3N2 (A/Moscow/10/99), 0.43 ± 0.08 µM. This compound yielded a CC50 in the series “in vitro” of more than 500 µM.

`CCC(CC)O[C@@H]1C=C(C(=O)O)C[C@H](n2cc(-c3ccc(Oc4ccccc4)cc3)nn2)[C@H]1NC(C)=O` [Compound 1b, (3R,4R,5S)-4-Acetamido-3-(pentan-3-yloxy)-5-[4-(4-phenoxyphenyl)-1H-1,2,3-triazol-1-yl]cyclohex-1-ene-1-carboxylic acid]: the IC50 on N5 (H12N5) neuraminidase and at N2 (H3N2) neuraminidase was more than 100 µM in each case.

`CCC(CC)O[C@@H]1C=C(C(=O)O)C[C@H](n2nncc2-c2ccc(N)cc2)[C@H]1NC(C)=O` [Compound 2i, (3R,4R,5S)-4-Acetamido-5-[5-(4-aminophenyl)-1H-1,2,3-triazol-1-yl]-3-(pentan-3-yloxy)cyclohex-1-ene-1-carboxylic acid] came in with an IC50 against N5 (H12N5) neuraminidase of 0.25 ± 0.044 µM.

In turn, `CCC(CC)O[C@@H]1C=C(C(=O)O)C[C@H](n2cc(-c3ccc(C(=O)O)cc3)nn2)[C@H]1NC(C)=O` [Compound 1f, (3R,4R,5S)-4-Acetamido-5-[4-(4-carboxyphenyl)-1H-1,2,3-triazol-1-yl]-3-(pentan-3-yloxy)cyclohex-1-ene-1-carboxylic acid] had an IC50 on N5 (H12N5) neuraminidase of 8.14 ± 1.12 µM.

On to `CCC(CC)O[C@@H]1C=C(C(=O)O)C[C@H](n2nncc2-c2ccc(N(C)C)cc2)[C@H]1NC(C)=O` [Compound 2l, (3R,4R,5S)-4-Acetamido-5-[5-(4-dimethylaminophenyl)-1H-1,2,3-triazol-1-yl]-3-(pentan-3-yloxy)cyclohex-1-ene-1-carboxylic acid], for which, at N5 (H12N5) neuraminidase, the IC50 is 0.14 ± 0.016 µM.

On to `CCC(CC)O[C@@H]1C=C(C(=O)O)C[C@H](n2nncc2-c2ccccc2N)[C@H]1NC(C)=O` [Compound 2k, (3R,4R,5S)-4-Acetamido-5-[5-(2-aminophenyl)-1H-1,2,3-triazol-1-yl]-3-(pentan-3-yloxy)cyclohex-1-ene-1-carboxylic acid], for which the IC50 against N5 (H12N5) neuraminidase stood at 0.41 ± 0.047 µM.

For `CCC(CC)O[C@@H]1C=C(C(=O)O)C[C@H](n2nncc2-c2ccccc2)[C@H]1NC(C)=O` [Compound 2e, (3R,4R,5S)-4-Acetamido-3-(pentan-3-yloxy)-5-(5-phenyl-1H-1,2,3-triazol-1-yl)cyclohex-1-ene-1-carboxylic acid], half-maximal inhibition at N5 (H12N5) neuraminidase (IC50) required 5.34 ± 0.45 µM.

In the case of `CCC(CC)O[C@@H]1C=C(C(=O)O)C[C@H](n2cc(-c3ccc(C)cc3)nn2)[C@H]1NC(C)=O` [Compound 1d, (3R,4R,5S)-4-Acetamido-5-[4-(4-methylphenyl)-1H-1,2,3-triazol-1-yl]-3-(pentan-3-yloxy)cyclohex-1-ene-1-carboxylic acid], the IC50 on N5 (H12N5) neuraminidase is 2.85 ± 1.28 µM; against N2 (H3N2) neuraminidase it was 4.41 ± 1.11 µM.

On N5 (H12N5) neuraminidase, `CCC(CC)O[C@@H]1C=C(C(=O)O)C[C@H](n2nncc2-c2ccc(C(=O)O)cc2)[C@H]1NC(C)=O` [Compound 2f, (3R,4R,5S)-4-Acetamido-5-[5-(4-carboxyphenyl)-1H-1,2,3-triazol-1-yl]-3-(pentan-3-yloxy)cyclohex-1-ene-1-carboxylic acid] returned an IC50 of 3.92 ± 0.69 µM.

Take `CCC(CC)O[C@@H]1C=C(C(=O)O)C[C@H](n2cc(COc3ccc4ccccc4c3)nn2)[C@H]1NC(C)=O` [Compound 1c, (3R,4R,5S)-4-Acetamido-5-[4-(2-naphthyloxy)methyl-1H-1,2,3-triazol-1-yl]-3-(pentan-3-yloxy)cyclohex-1-ene-1-carboxylic acid]: the results for the IC50 on N5 (H12N5) neuraminidase and against N2 (H3N2) neuraminidase were 1.66 ± 0.25 µM and 3.8 ± 0.65 µM, respectively.

As to `CCC(CC)O[C@@H]1C=C(C(=O)O)C[C@H](n2cc(-c3ccccc3)nn2)[C@H]1NC(C)=O` [Compound 1e, (3R,4R,5S)-4-Acetamido-3-(pentan-3-yloxy)-5-(4-phenyl-1H-1,2,3-triazol-1-yl)cyclohex-1-ene-1-carboxylic acid], at N5 (H12N5) neuraminidase, the IC50 came to 12.9 ± 1.57 µM.

For `CCC(CC)O[C@@H]1C=C(C(=O)O)C[C@H](n2cc(-c3cccc(N)c3)nn2)[C@H]1NC(C)=O` [Compound 1j, (3R,4R,5S)-4-Acetamido-5-[4-(3-aminophenyl)-1H-1,2,3-triazol-1-yl]-3-(pentan-3-yloxy)cyclohex-1-ene-1-carboxylic acid], inhibition on N5 (H12N5) neuraminidase was half-maximal at 3.6 ± 0.82 µM (IC50).

At N5 (H12N5) neuraminidase, `CCC(CC)O[C@@H]1C=C(C(=O)O)C[C@H](n2cc(-c3ccc(N(C)C)cc3)nn2)[C@H]1NC(C)=O` [Compound 1l, (3R,4R,5S)-4-Acetamido-5-[4-(4-dimethylaminophenyl)-1H-1,2,3-triazol-1-yl]-3-(pentan-3-yloxy)cyclohex-1-ene-1-carboxylic acid] came in with an IC50 of 0.74 ± 0.18 µM.

In the case of `CCC(CC)O[C@@H]1C=C(C(=O)O)C[C@H](n2cc(-c3ccc(-c4ccccc4)cc3)nn2)[C@H]1NC(C)=O` [Compound 1a, (3R,4R,5S)-4-Acetamido-5-[4-(1,1′-biphenyl-4-yl)-1H-1,2,3-triazol-1-yl]-3-(pentan-3-yloxy)cyclohex-1-ene-1-carboxylic acid], the IC50 on N5 (H12N5) neuraminidase and against N2 (H3N2) neuraminidase was more than 100 µM throughout.

Compound `CCC(CC)O[C@@H]1C=C(C(=O)O)C[C@H](n2cc(COc3ccc(C[C@H](N)C(=O)O)cc3)nn2)[C@H]1NC(C)=O` [Compound 1n, (3R,4R,5S)-4-Acetamido-5-{4-{[4-((S)-2-amino-2-carboxyethyl)phenoxy]methyl}-1H-1,2,3-triazol-1-yl}-3-(pentan-3-yloxy)cyclohex-1-ene-1-carboxylic acid] gave an IC50 on N5 (H12N5) neuraminidase of 6.95 ± 0.47 µM.

In the case of `CCC(CC)O[C@@H]1C=C(C(=O)O)C[C@H](n2cc(-c3cccc(C(=O)O)c3)nn2)[C@H]1NC(C)=O` [Compound 1g, (3R,4R,5S)-4-Acetamido-5-[4-(3-carboxyphenyl)-1H-1,2,3-triazol-1-yl]-3-(pentan-3-yloxy)cyclohex-1-ene-1-carboxylic acid], at N5 (H12N5) neuraminidase, the midpoint of inhibition, the IC50, lay at 29.5 ± 8 µM.

`CCC(CC)O[C@@H]1C=C(C(=O)O)C[C@H](n2nncc2-c2ccc(N(CC)CC)cc2)[C@H]1NC(C)=O` [Compound 2m, (3R,4R,5S)-4-Acetamido-5-[5-(4-diethylaminophenyl)-1H-1,2,3-triazol-1-yl]-3-(pentan-3-yloxy)cyclohex-1-ene-1-carboxylic acid] showed an IC50 against N5 (H12N5) neuraminidase of more than 100 µM.

As for `CCC(CC)O[C@@H]1C=C(C(=O)O)C[C@H](n2nncc2-c2cccc(C(=O)O)c2)[C@H]1NC(C)=O` [Compound 2g, (3R,4R,5S)-4-Acetamido-5-[5-(3-carboxyphenyl)-1H-1,2,3-triazol-1-yl]-3-(pentan-3-yloxy)cyclohex-1-ene-1-carboxylic acid], the IC50 against N5 (H12N5) neuraminidase came to 2.04 ± 0.99 µM.

As for `CCC(CC)O[C@@H]1C=C(C(=O)O)C[C@H](n2nncc2-c2ccccc2C(=O)O)[C@H]1NC(C)=O` [Compound 2h, (3R,4R,5S)-4-Acetamido-5-[5-(2-carboxyphenyl)-1H-1,2,3-triazol-1-yl]-3-(pentan-3-yloxy)cyclohex-1-ene-1-carboxylic acid], the IC50 against N5 (H12N5) neuraminidase stood at 0.57 ± 0.13 µM.
